Reference: ChEMBL document CHEMBL3045770, “Design and synthesis of some thieno[2,3-c]pyridazine derivatives of expected anticancer activity” (2013)

Legend:
Format in all cases: functional
EKVX = assay: Cytotoxicity against Homo sapiens (human) EKVX assessed as cell growth at 10 uM after 48 hr by SRB assay relative to control; settings: read-out: Activity
KM12 = assay: Cytotoxicity against Homo sapiens (human) KM12 assessed as cell growth at 10 uM after 48 hr by SRB assay relative to control; settings: KM12, 48 h, read-out: Activity
HT-29 = assay: Cytotoxicity against Homo sapiens (human) HT-29 assessed as cell growth at 10 uM after 48 hr by SRB assay relative to control; settings: HT-29, 48 h, read-out: Activity
DU-145 = assay: Cytotoxicity against Homo sapiens (human) DU145 assessed as cell growth at 10 uM after 48 hr by SRB assay relative to control; settings: DU-145, 48 h, read-out: Activity
NCI-H226 = assay: Cytotoxicity against Homo sapiens (human) NCI-H226 assessed as cell growth at 10 uM after 48 hr by SRB assay relative to control; settings: NCI-H226, 48 h, read-out: Activity
SW-620 = assay: Cytotoxicity against Homo sapiens (human) SW620 assessed as cell growth at 10 uM after 48 hr by SRB assay relative to control; settings: SW-620, 48 h, read-out: Activity
MDA-MB-435 = assay: Cytotoxicity against Homo sapiens (human) MDA-MB-435 assessed as cell growth at 10 uM after 48 hr by SRB assay relative to control; settings: MDA-MB-435, 48 h, read-out: Activity
OVCAR-3 = assay: Cytotoxicity against Homo sapiens (human) OVCAR3 assessed as cell growth at 10 uM after 48 hr by SRB assay relative to control; settings: OVCAR-3, 48 h, read-out: Activity
SR = assay: Cytotoxicity against Homo sapiens (human) SR assessed as cell growth at 10 uM after 48 hr by SRB assay relative to control; settings: read-out: Activity
ACHN = assay: Cytotoxicity against Homo sapiens (human) ACHN assessed as cell growth at 10 uM after 48 hr by SRB assay relative to control; settings: read-out: Activity
RXF 393 = assay: Cytotoxicity against Homo sapiens (human) RXF393 assessed as cell growth at 10 uM after 48 hr by SRB assay relative to control; settings: RXF 393, 48 h, read-out: Activity
SF-539 = assay: Cytotoxicity against Homo sapiens (human) SF539 assessed as cell growth at 10 uM after 48 hr by SRB assay relative to control; settings: SF-539, 48 h, read-out: Activity
BT-549 = assay: Cytotoxicity against Homo sapiens (human) BT549 assessed as cell growth at 10 uM after 48 hr by SRB assay relative to control; settings: BT-549, 48 h, read-out: Activity
CAKI-1 = assay: Cytotoxicity against Homo sapiens (human) Caki1 assessed as cell growth at 10 uM after 48 hr by SRB assay relative to control; settings: CAKI-1, 48 h, read-out: Activity
CCRF-CEM = assay: Cytotoxicity against Homo sapiens (human) CCRF-CEM assessed as cell growth at 10 uM after 48 hr by SRB assay relative to control; settings: read-out: Activity
SF-268 = assay: Cytotoxicity against Homo sapiens (human) SF268 assessed as cell growth at 10 uM after 48 hr by SRB assay relative to control; settings: SF-268, 48 h, read-out: Activity
HCT-15 = assay: Cytotoxicity against Homo sapiens (human) HCT15 assessed as cell growth at 10 uM after 48 hr by SRB assay relative to control; settings: HCT-15, 48 h, read-out: Activity
786-0 = assay: Cytotoxicity against Homo sapiens (human) 786-0 assessed as cell growth at 10 uM after 48 hr by SRB assay relative to control; settings: 786-0, 48 h, read-out: Activity
OVCAR-5 = assay: Cytotoxicity against Homo sapiens (human) OVCAR5 assessed as cell growth at 10 uM after 48 hr by SRB assay relative to control; settings: OVCAR-5, 48 h, read-out: Activity
U-251 = assay: Cytotoxicity against Homo sapiens (human) U251 assessed as cell growth at 10 uM after 48 hr by SRB assay relative to control; settings: U-251, 48 h, read-out: Activity
OVCAR-8 = assay: Cytotoxicity against Homo sapiens (human) OVCAR8 assessed as cell growth at 10 uM after 48 hr by SRB assay relative to control; settings: OVCAR-8, 48 h, read-out: Activity
HCT-116 = assay: Cytotoxicity against Homo sapiens (human) HCT116 assessed as cell growth at 10 uM after 48 hr by SRB assay relative to control; settings: HCT-116, 48 h, read-out: Activity
[1] = Cytotoxicity against Homo sapiens (human) NCI-ADR-RES assessed as cell growth at 10 uM after 48 hr by SRB assay relative to control; settings: read-out: Activity
SK-MEL-2 = assay: Cytotoxicity against Homo sapiens (human) SK-MEL-2 assessed as cell growth at 10 uM after 48 hr by SRB assay relative to control; settings: SK-MEL-2, 48 h, read-out: Activity
HL-60(TB) = assay: Cytotoxicity against Homo sapiens (human) HL-60(TB) assessed as cell growth at 10 uM after 48 hr by SRB assay relative to control; settings: HL-60, 48 h, read-out: Activity
MDA-MB-468 = assay: Cytotoxicity against Homo sapiens (human) MDA-MB-468 assessed as cell growth at 10 uM after 48 hr by SRB assay relative to control; settings: MDA-MB-468, 48 h, read-out: Activity
M14 = assay: Cytotoxicity against Homo sapiens (human) M14 assessed as cell growth at 10 uM after 48 hr by SRB assay relative to control; settings: M14, 48 h, read-out: Activity
SN12C = assay: Cytotoxicity against Homo sapiens (human) SN12C assessed as cell growth at 10 uM after 48 hr by SRB assay relative to control; settings: read-out: Activity
UACC-62 = assay: Cytotoxicity against Homo sapiens (human) UACC62 assessed as cell growth at 10 uM after 48 hr by SRB assay relative to control; settings: UACC-62, 48 h, read-out: Activity
SK-MEL-5 = assay: Cytotoxicity against Homo sapiens (human) SK-MEL-5 assessed as cell growth at 10 uM after 48 hr by SRB assay relative to control; settings: SK-MEL-5, 48 h, read-out: Activity
TK-10 = assay: Cytotoxicity against Homo sapiens (human) TK10 assessed as cell growth at 10 uM after 48 hr by SRB assay relative to control; settings: TK-10, 48 h, read-out: Activity
SK-OV-3 = assay: Cytotoxicity against Homo sapiens (human) SKOV3 assessed as cell growth at 10 uM after 48 hr by SRB assay relative to control; settings: SK-OV-3, 48 h, read-out: Activity
HCC 2998 = assay: Cytotoxicity against Homo sapiens (human) HCC2998 assessed as cell growth at 10 uM after 48 hr by SRB assay relative to control; settings: HCC 2998, 48 h, read-out: Activity

SMILES | growth at 10 µM (EKVX) [%] | growth at 10 µM (KM12) [%] | growth at 10 µM (HT-29) [%] | growth at 10 µM (DU-145) [%] | growth at 10 µM (NCI-H226) [%] | growth at 10 µM (SW-620) [%] | growth at 10 µM (MDA-MB-435) [%] | growth at 10 µM (OVCAR-3) [%] | growth at 10 µM (SR) [%] | growth at 10 µM (ACHN) [%] | growth at 10 µM (RXF 393) [%] | growth at 10 µM (SF-539) [%] | growth at 10 µM (BT-549) [%] | growth at 10 µM (CAKI-1) [%] | growth at 10 µM (CCRF-CEM) [%] | growth at 10 µM (SF-268) [%] | growth at 10 µM (HCT-15) [%] | growth at 10 µM (786-0) [%] | growth at 10 µM (OVCAR-5) [%] | growth at 10 µM (OVCAR-8) [%] | further results
CSc1nnc(-c2sc3nnc(-c4ccccc4)c(-c4ccccc4)c3c2O)o1 | 77.5 | 72.9 | 107 | 84.7 | 87.7 | 92.5 | 88.4 | 86.8 | 62.5 | 83.6 | 82.6 | 84.6 | 74.1 | 43.5 | 47.4 | 80.6 | 54.6 | 88.7 | 101 | 85.8 | growth at 10 µM (U-251): 62.9%; growth at 10 µM (HCT-116): 60.9%; growth at 10 µM [1]: 85.5%; growth at 10 µM (SK-MEL-2): 102%; growth at 10 µM (HL-60(TB)): 107%; growth at 10 µM (MDA-MB-468): 78.9%; growth at 10 µM (M14): 73%; growth at 10 µM (SN12C): 75.7%; growth at 10 µM (UACC-62): 58.9%; growth at 10 µM (SK-MEL-5): 83.5%; growth at 10 µM (TK-10): 100%
Oc1c(-c2nnc(-c3ccc(Cl)cc3)o2)sc2nnc(-c3ccccc3)c(-c3ccccc3)c12 | 58.5 | 39.2 | 91.2 | 71.9 | 67.2 | 35.6 | 58.6 | 26 | 35.1 | 54 | 72.3 | 55 | 56 | 24.5 | 27.6 | 55.2 | 32 | 61.1 | 84.8 | 46.1 | growth at 10 µM (U-251): 32.6%; growth at 10 µM (HCT-116): 19.3%; growth at 10 µM [1]: 15.5%; growth at 10 µM (SK-MEL-2): 87.1%; growth at 10 µM (SK-OV-3): 61.9%; growth at 10 µM (HL-60(TB)): 52.5%; growth at 10 µM (MDA-MB-468): 44.6%; growth at 10 µM (M14): 55.3%; growth at 10 µM (UACC-62): 38%; growth at 10 µM (HCC 2998): 54.7%; growth at 10 µM (SK-MEL-5): 53.7%; growth at 10 µM (TK-10): 59%
CNc1nnc(-c2sc3nnc(-c4ccccc4)c(-c4ccccc4)c3c2O)s1 | 112 | 126 | 102 | 135 | 106 | 105 | 103 | 116 | 78.2 | 107 | 103 | 109 | 101 | 72 | 110 | 106 | 98.9 | 108 | 96.5 | 104 | growth at 10 µM (HCT-116): 102%; growth at 10 µM [1]: 105%; growth at 10 µM (SK-MEL-2): 126%; growth at 10 µM (SK-OV-3): 97.7%; growth at 10 µM (HL-60(TB)): 107%; growth at 10 µM (MDA-MB-468): 92.6%; growth at 10 µM (M14): 107%; growth at 10 µM (SN12C): 94.2%; growth at 10 µM (UACC-62): 97.5%; growth at 10 µM (HCC 2998): 98.4%; growth at 10 µM (SK-MEL-5): 104%; growth at 10 µM (TK-10): 108%
Oc1c(-c2n[nH]c(=S)o2)sc2nnc(-c3ccccc3)c(-c3ccccc3)c12 | 102 | 119 | 114 | 112 | 91.5 | 124 | 93.6 | 115 | 83.4 | 92.4 | 109 | 106 | 99.5 | 93.3 | 96.1 | 102 | 103 | 108 | 102 | 106 | growth at 10 µM (U-251): 106%; growth at 10 µM (HCT-116): 103%; growth at 10 µM (SK-MEL-2): 106%; growth at 10 µM (SK-OV-3): 96.4%; growth at 10 µM (HL-60(TB)): 101%; growth at 10 µM (MDA-MB-468): 108%; growth at 10 µM (M14): 99.5%; growth at 10 µM (SN12C): 94%; growth at 10 µM (UACC-62): 94.3%; growth at 10 µM (SK-MEL-5): 94.7%; growth at 10 µM (TK-10): 103%
Oc1c(-c2nnc(-c3ccccc3)o2)sc2nnc(-c3ccccc3)c(-c3ccccc3)c12 | 94.1 | 72.3 | 103 | 106 | 85 | 64.4 | 78.4 | 72.4 | 46.8 | 67 | 85.6 | 68.5 | 74.9 | 29.1 | 47.7 | 85.5 | 36.6 | 79.9 | 106 | 66.8 | growth at 10 µM (HCT-116): 47.4%; growth at 10 µM [1]: 18.8%; growth at 10 µM (SK-MEL-2): 106%; growth at 10 µM (SK-OV-3): 83%; growth at 10 µM (HL-60(TB)): 83.2%; growth at 10 µM (MDA-MB-468): 64.7%; growth at 10 µM (M14): 69.6%; growth at 10 µM (SN12C): 61.4%; growth at 10 µM (UACC-62): 51.1%; growth at 10 µM (HCC 2998): 70.4%; growth at 10 µM (SK-MEL-5): 71.2%; growth at 10 µM (TK-10): 90.6%
CCOC(=O)c1c(Nc2ccc(S(=O)(=O)Nc3nccs3)cc2)nnc(-c2ccccc2)c1-c1ccccc1 | 102 | 114 | 116 | 114 | 102 | 131 | 119 | 120 | 76.2 | 102 | 120 | 117 | 98.9 | 107 | 91.3 | 112 | 106 | 109 | 117 | 102 | growth at 10 µM (U-251): 98.5%; growth at 10 µM (HCT-116): 98.6%; growth at 10 µM (SK-MEL-2): 118%; growth at 10 µM (SK-OV-3): 106%; growth at 10 µM (HL-60(TB)): 104%; growth at 10 µM (MDA-MB-468): 110%; growth at 10 µM (M14): 104%; growth at 10 µM (SN12C): 94.8%; growth at 10 µM (UACC-62): 92.9%; growth at 10 µM (SK-MEL-5): 97.6%; growth at 10 µM (TK-10): 109%
